Where “and” joins values, the source holds several entries; their conditions need not be identical. Equal values may be shown once.
What was measured:
[1] = system: Chinese cabbage soft rot; assay: Test for disease control of Chinese cabbage, field (Example 3 / Comparative example 2); assay type: in vivo, Erwinia carotovora; parameters: key to Disease incidence rate: % of examined plants diseased; key to Disease control value: (1 - severity treated/severity untreated) x 100; key to Disease severity: severity index 0-100 from disease index 0-4 weighted counts; conditions: for Disease incidence rate / Disease severity / Disease control value: 54 days; for Disease control value: vs untreated plot
Excerpt: (§1) (Disease incidence rate)=[(number of diseased plants)/(number of plants examined)]*100
(§2) (Disease severity)={S [(number of diseased plants in each class into which the plants are classified according to the degree of disease)*(disease index)]/[(number of plants examined)*4]}*100
(§3) (Disease control value)={1-[(Disease severity in treated plot)/(Disease severity in untreated plot)]}*100
(§4) Incidentally, the evaluation criteria for the disease index are as follows. • (Disease index) • 0: No lesion • 1: Lesions appear only in part of outer leaves (shipment can be made). • 2: Lesions appear in outer leaves and part of head leaves (the damaged part is removed and shipment as a small size plant can be made, rated Grade B). • 3: Lesions appear in most head leaves or more (shipment cannot be made). • 4: Lesions appear in the entire plant and the plant dies.
(§5) Preparation was performed using 500 g/L of 3-chloro-N-(3-chloro-5-trifluoromethyl-2-pyridyl)-alpha,alpha,alpha-trifluoro-2,6-dinit ro-p-toluidine (fluazinam, Frowncide SC (trade name), manufactured by Ishihara Sangyo Kaisha, Ltd.) such that the amount of the active ingredient was 62.5 g ai/10 a (125 mL product/10 a), 125 g ai/10 a (250 mL product/10 a), and 250 g ai/10 a (500 mL product/10 a), and each amount of dilution water was 150 L/10 a.
A mulch-sheet for agricultural use was spreaded on soil, and planting holes for settlement (diameter: about 9 cm) were made, and then, the spray solution prepared in the above was sprayed onto the planting holes such that the amount of treated active ingredient was 0.0625 g/m^2 (150 L/10 a) in the case of the spray solution containing the active ingredient at 62.5 g ai/10 a, 0.125 g/m^2 (150 L/10 a) in the case of the spray solution containing the active ingredient at 125 g ai/10 a, and 0.25 g/m^2 (150 L/10 a) in the case of the spray solution containing the active ingredient at 250 g ai/10 a, followed by air-drying. Then, seedlings of Chinese cabbage (cultivar: Musou) grown for 4 weeks in a cell tray (128 holes/nursery box) were planted such that 30 seedlings were planted in one test plot having an area of 6 m^2 with two replications.
Preparation was performed by diluting streptomycin (Mycin 20 wettable powder (trade name), manufactured by Hokko Chemical Industry Co., Ltd.) with water to 1/1000.
In a field covered with a mulch-sheet for agricultural use, seedlings of Chinese cabbage (cultivar: Musou) grown in a cell tray were planted, in the same manner as in Example 3, and foliage application was performed by spraying the spray solution of streptomycin prepared in (1) (spraying amount per application: 300 L/10 a) three times (13 days, 20 days, and 27 days after the planting of the seedlings).
(§6) The degree of disease incidence was examined for all the plants in each test plot 54 days after the start of the test, and the disease severity and the disease control value were evaluated. Incidentally, the disease severity and the disease control value were obtained in the same manner as described above.

[2] = system: Chinese cabbage soft rot; assay: Test for disease control of Chinese cabbage with or without mulch-sheet, field (Example 5); assay type: in vivo, Erwinia carotovora; parameters: key to Disease incidence rate: % of examined plants that are diseased; key to Disease control value: (1 − severity treated / severity untreated) × 100; key to Disease severity: Σ(plants per class × index 0-4)/(plants examined × 4) × 100; conditions: 250 g ai/10 a; for Disease incidence rate / Disease severity / Disease control value: 150 L/10 a, Harebutai 65, 64 days; for Disease control value: vs untreated plot
Excerpt: as §1, §2, §3, §4
as §5, with “was” for “was 62.5 g ai/10 a (125 mL product/10 a), 125 g ai/10 a (250 mL product/10 a), and”, “the” for “each”
(§7) A mulch-sheet for agricultural use was spreaded on soil, and planting holes for settlement (diameter: about 5 cm) were made, and then, the spray solution prepared in the above was sprayed onto the planting holes such that the spraying amount was 0.25 g/m^2 (150 L/10 a), followed by air-drying. Then, seedlings of Chinese cabbage (cultivar: Harebutai 65) grown for 4 weeks in a cell tray (128 holes/nursery box) were planted such that 19 seedlings were planted in one test plot having an area of 2.4 m^2 with two replications.
as §7, with “The” for “A mulch-sheet for agricultural use was spreaded on soil, and planting holes for settlement (diameter: about 5 cm) were made, and then, the”, “a) without spreading a mulch-sheet for agricultural use,” for “a),”
as §6, with “64” for “54”

[3] = 62.5 g ai/10 a, 150 L/10 a onto planting holes, Musou, Average
[4] = 125 g ai/10 a, 150 L/10 a onto planting holes, Musou, Average
[5] = 125 g ai/10 a, 150 L/10 a onto planting holes, Musou, single replications I-II
[6] = 250 g ai/10 a, 150 L/10 a onto planting holes, Musou, Average
[7] = 250 g ai/10 a, 150 L/10 a onto planting holes, Musou, single replications I-II
[8] = with mulch-sheet for agricultural use, Average
[9] = with mulch-sheet for agricultural use, single replications I-II
[10] = without mulch-sheet for agricultural use, Average
[11] = 1/1000 dilution, foliage application three times, Musou, Average

O=[N+]([O-])c1cc(C(F)(F)F)c(Cl)c([N+](=O)[O-])c1Nc1ncc(C(F)(F)F)cc1Cl [Fluazinam, 3-chloro-N-(3-chloro-5-trifluoromethyl-2-pyridyl)-alpha,alpha,alpha-trifluoro-2,6-dinit ro-p-toluidine]
Disease incidence rate [1, 3]: 100 | Disease severity [1, 3]: 32.1 | Disease severity ([1]; 62.5 g ai/10 a, 150 L/10 a onto planting holes, Musou, single replications I-II): 26.7 and 37.5 | Disease control value ([1]; 62.5 g ai/10 a, 150 L/10 a onto planting holes, Musou): 28.7 | Disease incidence rate ([1]; 62.5 g ai/10 a, 150 L/10 a onto planting holes, cultivar Musou, single replications I-II): 100 | Disease incidence rate [1, 4]: 100 | Disease severity [1, 4]: 30.9 | Disease incidence rate [1, 5]: 100 | Disease severity [1, 5]: 33.3 and 28.4 | Disease control value ([1]; 125 g ai/10 a, 150 L/10 a onto planting holes, Musou): 31.3 | Disease incidence rate [1, 6]: 83.3 | Disease severity [1, 6]: 25 | Disease incidence rate [1, 7]: 73.3 and 93.3 | Disease severity [1, 7]: 20 and 30 | Disease control value ([1]; 250 g ai/10 a, 150 L/10 a onto planting holes, Musou): 44.4 | Control effect on Chinese cabbage soft rot compared with foliage application of streptomycin (in words) ([1]; Table 3 test, moderate incidence conditions, even at 62.5 g ai/10 a or 125 g ai/10 a): a higher control effect | Control effect without mulch-sheet compared with treated plot covered with mulch-sheet (in words) ([2]; Table 5 test, moderate incidence conditions): substantially equal | Disease incidence rate [2, 8]: 31.2 | Disease severity [2, 8]: 8.5 | Disease incidence rate [2, 9]: 23.5 and 38.9 | Disease severity [2, 9]: 5.9 and 11.1 | Disease control value ([2]; with mulch-sheet for agricultural use): 73.1 | Disease incidence rate [2, 10]: 28.9 | Disease severity [2, 10]: 8.6 | Disease control value ([2]; without mulch-sheet for agricultural use): 72.8

[H]/N=C(/N)N[C@H]1[C@H](O)[C@@H](O)[C@H](O[C@@H]2O[C@@H](C)[C@](O)(C=O)[C@H]2O[C@@H]2O[C@@H](CO)[C@H](O)[C@@H](O)[C@@H]2NC)[C@@H](N/C(N)=N\[H])[C@@H]1O [Streptomycin, streptomycin]
Disease incidence rate ([1]; 1/1000 dilution, foliage application 300 L/10 a three times (13, 20, 27 days), Musou, single replications I-II): 100 | Disease incidence rate [1, 11]: 100 | Disease severity [1, 11]: 36.7 | Disease severity ([1]; 1/1000 dilution, foliage application three times, Musou, single replications I-II): 32.5 and 40.8 | Disease control value ([1]; 1/1000 dilution, foliage application three times, Musou): 18.4

Reference: US20120088803A1, “CONTROL AGENT FOR SOFT ROT AND CONTROL METHOD FOR THE SAME” (Ishihara Sangyo Kaisha, Ltd, priority 2009, published 2012)
